{
  "source": "patent US12026655B2",
  "about": "“Systems and methods for post-harvest crop quality management” (priority 2017, dated 2024)",
  "origin": "cited, not measured here",
  "key": {"[1]": {"system": "tobacco moth and susceptible cigarette beetle"}, "Rhyzopertha dominica": {"system": "Rhyzopertha dominica", "conditions": "e(x, t)>1 means at least 99.9% of the insect population killed"}, "[2]": {"system": "resistant cigarette beetle"}, "[3]": {"conditions": "tobacco temperature 16-20 °C (61-68 °F), 300 ppm phosphine at the bale/case centre"}},
  "note": "Like-named read-outs stand apart in the source and are kept apart here.",
  "data": [
    {"smiles": "P", "note": "[phosphine]", "values": [
      {"measurement": "Minimum Exposure Time to achieve 100% control of all development stages", "setting": "[1]; [3]", "value": 6, "unit": "days"},
      {"measurement": "Minimum Exposure Time to achieve 100% control of all development stages", "setting": "[1]; tobacco temperature >20 °C (>68 °F), 200 ppm phosphine at the bale/case centre", "value": 4, "unit": "days"},
      {"measurement": "empirical constant a1 of the extinction indicator function e(x, t)", "setting": "Rhyzopertha dominica", "value": 4.04},
      {"measurement": "empirical constant a2 of the extinction indicator function e(x, t)", "setting": "Rhyzopertha dominica", "value": 0.6105},
      {"measurement": "Minimum Exposure Time to achieve 100% control of all development stages", "setting": "[2]; [3]", "value": 12, "unit": "days"},
      {"measurement": "Minimum Exposure Time to achieve 100% control of all development stages", "setting": "[2]; tobacco temperature 20-25 °C (68-77 °F), 300 ppm phosphine at the bale/case centre", "value": 12, "unit": "days"},
      {"measurement": "Minimum Exposure Time to achieve 100% control of all development stages", "setting": "[2]; tobacco temperature 20-25 °C (68-77 °F), 700 ppm phosphine at the bale/case centre", "value": 10, "unit": "days"},
      {"measurement": "Minimum Exposure Time to achieve 100% control of all development stages", "setting": "[2]; tobacco temperature >25 °C (>77 °F), 300 ppm phosphine at the bale/case centre", "value": 12, "unit": "days"},
      {"measurement": "Minimum Exposure Time to achieve 100% control of all development stages", "setting": "[2]; tobacco temperature >25 °C (>77 °F), 600 ppm phosphine at the bale/case centre", "value": 6, "unit": "days"}
    ]}
  ]
}
